Here are results for seven molecules from US5244892A, “Cephem compounds, and antibacterial agents” (Kyorin Pharmaceutical Co., Ltd., priority 1990, dated 1993).

Structures are written as SMILES. ≈ marks a conversion by molar mass, not a printed value. Like-named read-outs stand apart in the source and are kept apart here.

Common to all, as to test: in vitro antibacterial activity (minimum inhibitory concentration), standard method of the Japan Chemotherapy Society
Common to all, as to assay type: cell-based

The subject of test [1] is Streptococcus pneumoniae Type III. Particulars: read-out: Minimum inhibitory concentration for growth.
Test [2] relates to Staphylococcus aureus 209P. Conditions: read-out: Minimum inhibitory concentration for growth.
Test [3] concerns Pseudomonas aeruginosa IFO 12689.
Test [4] relates to Klebsiella pneumoniae 1-220 S. Particulars: 1220S, read-out: Minimum inhibitory concentration for growth.
Test [5] deals with Escherichia coli ATCC 10536. Particulars: ATCC10536, Gram (-), 10^6 cells/ml, read-out: Minimum inhibitory concentration for growth.
The next test relates to S. epidermidis IID 866. Particulars: Staphylococcus epidermidis.
[6] abbreviates: IFO12689, Gram (-), 10^6 cells/ml, read-out: Minimum inhibitory concentration for growth.
[7] abbreviates: IID866, Gram (+), 10^6 cells/ml, read-out: Minimum inhibitory concentration for growth.

On to `CO/N=C(\C(=O)N[C@@H]1C(=O)N2C(C(=O)O)=C(CSc3cc(=O)c4cc(O)c(O)cc4s3)CS[C@H]12)c1csc(N)n1` [Example 75, Sodium 7β-[(Z)-2-(2-aminothiazole-4-yl)-2-methoxyiminoacetamido]-3-(6,7-dihydroxy-4-oxo-4H-1-benzothiopyran-2-yl) thiomethyl-3-cephem-4-carboxylate], for which the MIC is 0.1 µg/mL in test [1] (Gram (+), 10^6 cells/ml); 0.39 µg/mL in test [2] (Gram (+), 10^6 cells/ml); 0.39 µg/mL in test [3] (setting [6]); no more than 0.0063 µg/mL in test [4] (Gram (-), 10^6 cells/ml); no more than 0.0063 µg/mL in test [5]; 0.78 µg/mL in the test with S. epidermidis IID 866 (setting [7]).
As to `Nc1nc(/C(=N/OCC(=O)O)C(=O)N[C@@H]2C(=O)N3C(C(=O)O)=C(CSc4cc(=O)c5cc(O)c(O)cc5s4)CS[C@H]23)cs1` [Example 108, Disodium 7β-[(Z)-2-(2-aminothiazole-4-yl)-2-carboxymethoxyiminoacetamido]-3-(6,7-dihydroxy-4-oxo-4H-1-benzothiopyran-2-yl)thiomethyl-3-cephem-4-carboxylate], the MIC was 0.78 µg/mL in test [1] (Gram (+), 10^6 cells/ml); 6.25 µg/mL in test [2] (Gram (+), 10^6 cells/ml); 0.05 µg/mL in test [3] (setting [6]); no more than 0.0063 µg/mL in test [4] (Gram (-), 10^6 cells/ml); no more than 0.0063 µg/mL in test [5]; 12.5 µg/mL in the test with S. epidermidis IID 866 (setting [7]).
In the case of `CC(C)(O/N=C(\C(=O)N[C@@H]1C(=O)N2C(C(=O)O)=C(CSc3cc(=O)c4cc(O)c(O)cc4s3)CS[C@H]12)c1csc(N)n1)C(=O)O` [Example 110, Disodium 7β-[(Z)-2-(2-aminothiazole-4-yl)-2-(1-carboxy-1-methylethoxy)iminoacetamido]-3-(6,7-dihydroxy-4-oxo-4H-1-benzothiopyran-2-yl)thiomethyl-3-cephem-4-carboxylate], the MIC in test [1] (Gram (+), 10^6 cells/ml) is 0.78 µg/mL; in test [2] (Gram (+), 10^6 cells/ml), 6.25 µg/mL; in test [3] (setting [6]), 0.05 µg/mL; in test [4] (Gram (-), 10^6 cells/ml) it was no more than 0.0063 µg/mL; in test [5], no more than 0.0063 µg/mL; in the test on S. epidermidis IID 866 (setting [7]) it was 12.5 µg/mL.
Regarding `CC(C)(O/N=C(\C(=O)N[C@@H]1C(=O)N2C(C(=O)[O-])=C(C[n+]3ccccc3)CS[C@H]12)c1csc(N)n1)C(=O)O` [CAZ, ceftazidime, reference compound], the MIC came to 0.39 µg/mL (≈ 0.714 µM) in test [1]; 3.13 µg/mL (≈ 5.73 µM) in test [2]; 3.13 µg/mL (≈ 5.73 µM) in test [3] (IFO12689, read-out: Minimum inhibitory concentration for growth); 0.2 µg/mL (≈ 0.366 µM) in test [4]; 0.05 µg/mL (≈ 0.0915 µM) in test [5]; 3.13 µg/mL (≈ 5.73 µM) in the test on S. epidermidis IID 866 (IID866, read-out: Minimum inhibitory concentration for growth).
For `CO/N=C(\C(=O)N[C@@H]1C(=O)N2C(C(=O)O)=C(COC(C)=O)CS[C@H]12)c1csc(N)n1` [CTX, cefotaxime, reference compound], the MIC in test [1] (Gram (+), 10^6 cells/ml) stood at 0.1 µg/mL (≈ 0.22 µM); in test [2] (Gram (+), 10^6 cells/ml), 0.78 µg/mL (≈ 1.71 µM); in test [3] (setting [6]), 25 µg/mL (≈ 54.9 µM); in test [4] (Gram (-), 10^6 cells/ml) it was 0.05 µg/mL (≈ 0.11 µM); in test [5], 0.025 µg/mL (≈ 0.0549 µM); in the test on S. epidermidis IID 866 (setting [7]), 0.78 µg/mL (≈ 1.71 µM).
Turning to `CO/N=C(\C(=O)N[C@@H]1C(=O)N2C(C(=O)O)=C(CSc3cc(=O)c4cc(O)c(O)cc4s3)CS[C@H]12)c1nsc(N)n1` [Example 90, Sodium 7β[(Z)-2-(5-amino-1,2,4-thiadiazole-3-yl)-2-methoxyiminoacetamido]-3-(6,7-dihydroxy-4-oxo-4H-1-benzothiopyran-2-yl) thiomethyl-3-cephem-4-carboxylate], the MIC in test [1] (Gram (+), 10^6 cells/ml) is 0.1 µg/mL; in test [2] (Gram (+), 10^6 cells/ml), 1.56 µg/mL; in test [3] (setting [6]) it was 0.05 µg/mL; in test [4] (Gram (-), 10^6 cells/ml), no more than 0.0063 µg/mL; in test [5], no more than 0.0063 µg/mL; in the test with S. epidermidis IID 866 (setting [7]), 1.56 µg/mL.
Consider `Nc1nc(/C(=N/OCC(=O)O)C(=O)N[C@@H]2C(=O)N3C(C(=O)O)=C(CSc4sc5cc(O)c(O)cc5c(=O)c4Br)CS[C@H]23)cs1` [Example 100, Disodium 7β-[(Z)-2-(2-aminothiazole-4-yl)-2-carboxymethoxyiminoacetamido]-3-(3-bromo-6,7-dihydroxy-4-oxo-4H-1-benzothiopyran-2-yl)thiomethyl-3-cephem-4-carboxylate], for which the MIC in test [1] (Gram (+), 10^6 cells/ml) was 3.13 µg/mL; in test [2] (Gram (+), 10^6 cells/ml) it was 12.5 µg/mL; in test [3] (setting [6]) it was 0.1 µg/mL; in test [4] (Gram (-), 10^6 cells/ml) it was no more than 0.0063 µg/mL; in test [5], no more than 0.0063 µg/mL; with S. epidermidis IID 866 (setting [7]) it was 12.5 µg/mL.
